Legend:
DENV2 CprME/JEV SRIPs = test: E protein-mediated attachment assay with chimeric DENV2 CprME/JEV SRIPs on Vero E6 cells; format: cell-based, Dengue virus type 2; details: Dengue virus, DENV2, Vero C1008, 1 h, read-out: IC50 of E-mediated attachment against DENV2 CprME/JEV SRIPs
Method: Figure 6 Attachment inhibition of chimeric DENV2 CprM-E/JEV and wild-type JEV SRIPs by active GL conjugates. Vero E6 cells were pre-cooled and incubated with freshly prepared mixtures of DENV2 CprM-E/JEV or wild-type JEV SRIPs, with active GL derivatives 3 (A), 6 (B), 11 (C), and 21 (D) at 4 °C for 1 h, respectively. After the removal of the mixtures, the cells were kept at 37 °C for 18 h and then an immunofluorescent assay with anti-JEV NS5 antibodies plus DAPI staining was performed. Finally, the inhibition percentage of SRIP attachment infectivity was measured as follows: 1-(percentage of JEV NS5 positivity in treated cells/percentage of JEV NS5 positivity in mock-treated cells). * p < 0.05; *** p < 0.001 compared with untreated, infected cells.
(§1) DNA-launched cytomegaloviruses (CMV) promoter-driven JEV and ZIKV replicons had been constructed, as described in our prior reports. […] After the removal of the mixture (the compound and SRIP), the cells were incubated at 37 °C for 18 h, and then were analyzed by immunofluorescent assay with anti-JEV NS3 and anti-ZIKV NS5 antibodies, respectively, plus DAPI staining for determining the residual infectivity of wild-type and chimeric SRIPs, as described above.

DENV2 prME/ZIKV SRIPs = test: E protein-mediated attachment assay with chimeric DENV2 prME/ZIKV SRIPs on Vero E6 cells; format: cell-based, Dengue virus type 2; details: Vero C1008, 1 h, read-out: IC50 of E-mediated attachment against DENV2 prME/ZIKV SRIPs
Method: (§2) Figure 7 Attachment inhibition of chimeric DENV2 prM-E/ZIKV and wild-type ZIKV SRIPs by active GL derivatives 3 and 11. Vero E6 cells were pre-cooled and incubated with fresh-prepared mixtures of DENV2 prM-E/ZIKV or wild-type ZIKV SRIPs, with active GL derivatives 3 (A), and 11 (B) at 4 °C for 1 h, respectively. After the removal of the mixtures, the cells were kept at 37 °C for 18 h and then an immunofluorescent assay with anti-ZIKV NS1 antibodies plus DAPI staining was performed. Finally, the inhibition percentage of SRIP attachment infectivity was measured as follows: 1-(percentage of ZIKV NS1 positivity in treated cells/ percentage of ZIKV NS1 positivity in mock-treated cells). * p < 0.05; *** p < 0.001 compared with untreated, infected cells.
as §1

wild-type ZIKV SRIPs = test: Attachment assay with wild-type ZIKV SRIPs on Vero E6 cells; format: cell-based, Zika virus; details: 4 °C for 1 h
Method: as §2, §1

DENV2 [1] = test: DENV2 infectivity inhibition (anti-NS4B immunofluorescence) in Vero E6 cells; format: cell-based, Dengue virus type 2; details: Dengue virus; for inhibition at 10 µM: Vero C1008, 10 μM compound, DENV2, Vero E6 cells, 96 h, read-out: Inhibition (%) at 10 μM (reduction of NS4B-positive cells)
Excerpt: […] In CPE and infectivity reduction assays, […], and then photographed by microscope for examining the levels of DENV2-induced CPE in infected cells treated with or without GL conjugate. Meanwhile, the cells were further performed using immunofluorescence assay (IFA) with anti-DENV NS4B antibodies (GeneTex, Inc., Hsinchu, Taiwan) and anti-rabbit IgG antibodies conjugated with AF555 (ThermoFisher, Waltham, MA, USA) plus DAPI (4′,6-diamidino-2-phenylindole) nuclear staining. Finally, the DENV-2 infectivity was measured according to the ratio of DENV NS4B-positive cells to DAPI-stained cells in the well of mock-treated or treated cells, as described in [45, 59, 60].

DENV2 [2] = test: DENV2 yield reduction assay (TCID50) in Vero E6 cells; format: cell-based, Dengue virus type 2
Method: Ten-fold serial dilutions of the cultured media of treated/infected cells harvested in the antiviral potency assay were applied to a monolayer of Vero E6 cells in the 96-well plates. After 96-h incubation, the number of CPE in each well of the dilution was calculated, and the indicated dilution with a 50% positivity rate of CPE in the cell culture was expressed as the […] (50%) tissue culture infectious dose (TCID50).

[3] = Dengue virus, DENV2, Vero C1008, 96 h, read-out: IC50 on the viral yield of DENV2, Vero E6 cells, TCID50 assay, 96 h

CCOC(=O)[C@H](Cc1ccccc1)NC(=O)[C@H]1O[C@@H](O[C@H]2[C@H](OC3CC[C@@]4(C)C(CC[C@]5(C)C4C(=O)C=C4C6C[C@@](C)(C(=O)O)CC[C@]6(C)CC[C@]45C)C3(C)C)O[C@H](C(=O)N[C@@H](Cc3ccccc3)C(=O)OCC)[C@@H](O)[C@@H]2O)[C@H](O)[C@@H](O)[C@@H]1O (stereo partly drawn) [Compound 11, 3-O-{2-O-[N-(β-D-Glucopyranosyluronoyl)-L-phenylalanineethyl ester]-N-(β-D-Glucopyranosyluronoyl)-L-phenylalanineethyl ester}-(3β, 20β)-11-oxo-30-noroleane-12-ene-30-oic Acid]
IC50 (DENV2 CprME/JEV SRIPs): 2820 nM
IC50 (DENV2 prME/ZIKV SRIPs): 1260 nM
Attachment of wild-type ZIKV SRIPs onto Vero E6 cells (wild-type ZIKV SRIPs): did not impede
IC50 (DENV2 [1]; DENV2, Vero C1008, read-out: Inhibition of DENV2 Infectivity (IC50, μM), Vero E6 cells): 0.17 to 0.5 µM
inhibition at 10 µM (DENV2 [1]): 91.3%
IC50 (DENV2 [2]; [3]): 200 nM
IC50 (DENV2 [2]; read-out: IC50 on the viral yield of DENV2, Vero E6 cells, TCID50 assay, 96 h): 170 nM

COC(=O)[C@H](NC(=O)[C@H]1O[C@@H](O[C@H]2[C@H](OC3CC[C@@]4(C)C(CC[C@]5(C)C4C(=O)C=C4C6C[C@@](C)(C(=O)O)CC[C@]6(C)CC[C@]45C)C3(C)C)O[C@H](C(=O)N[C@@H](C(=O)OC)C(C)C)[C@@H](O)[C@@H]2O)[C@H](O)[C@@H](O)[C@@H]1O)C(C)C (stereo partly drawn) [Compound 3, 3-O-{2-O-[N-(β-D-Glucopyranosyluronoyl)-D-valinemethyl ester]-N-(β-D-glucopyranosyluronoyl)-D-valinemethyl ester}-(3β, 20β)-11-oxo-30-noroleane-12-ene-30-oic Acid]
IC50 (DENV2 CprME/JEV SRIPs): 6690 nM
IC50 (DENV2 prME/ZIKV SRIPs): 2820 nM
Attachment of wild-type ZIKV SRIPs onto Vero E6 cells (wild-type ZIKV SRIPs): did not impede
inhibition at 10 µM (DENV2 [1]): 90.7%
IC50 (DENV2 [2]; [3]): 500 nM

Reference: PMC9499324, “Glycyrrhizic Acid Derivatives Bearing Amino Acid Residues in the Carbohydrate Part as Dengue Virus E Protein Inhibitors: Synthesis and Antiviral Activity” (International Journal of Molecular Sciences, 2022)
